Key:
[1] = molecular target: T1, BRaf (Homo sapiens, UniProt P15056, V600E); experiment: BRaf protein degradation assay in A375 cells (western blot / In-Cell Western); type: cell-based; conditions: for Dmax: A-375
T1 construct: endogenous in cells; host or cells: A375 cells
Description: 5. BRaf Protein In Vitro Degradation Assay (A375 Cells) of Table 7
A375 cells were cultured in ATCC DMEM+10% FBS in 12 well plates, and treated with indicated compound from Tables 1-41 or 0.1% DMSO vehicle control for 16 hours. Cells were harvested in Cell Signaling lysis buffer (Cat #9803) with the addition of Roche protease inhibitor tablets (Cat #11873580001), and lysates clarified by microcentrifugation. Proteins were separated by SDS-PAGE, and transferred onto nitrocellulose membranes using an Invitrogen iBlot system. Immunoblotting was performed for BRaf (Santa Cruz Cat #9002), CRAF (BD Cat #610151), and pErk (Cell Signaling Cat #9106). GAPDH (Cell Signaling Cat #2118) was used as a loading control. Quantification was carried out using the BioRad Image Lab 5 software.
6. BRaf In-Cell Western Cellular Degradation Assay (A375 Cells) of Table 7
A375 cells were cultured in ATCC DMEM+10% FBS in 96-well plates, and treated with indicated compounds from Tables-43 or 0.1% DMSO vehicle control for 72 hours. Cells were washed with PBS 1×, and affixed to plate using 4% PFA in phosphate buffered saline for 15 minutes; washed 1× and permeabilized using 0.1% Triton-X-100 in PBS for 5 minutes; washed 1× and blocked with LICOR blocker (Cat. #927-50000) for 1 hour. Cells were then incubated with B-Raf antibody (Santa Cruz Cat #9002, Santa Cruz Cat #528) and tubulin antibody (Sigma #T6074) in LICOR blocker for 18 hours. Cells were washed 3× prior to adding secondary antibodies (LICOR cat #926-32210 and 926-68071) and incubated for 1 hour. Cells were washed 3× and imaged using LICOR Odyssey Software.

[2] = molecular target: T2, BRD4 (Homo sapiens, UniProt O60885); experiment: BRD4 Western protocol in 22Rv-1 or VCaP cells; type: cell-based; conditions: 16 hours, western blot
T2 construct: 22Rv-1 or VCaP cells were purchased from ATCC and cultured in Dulbecco's Modified Eagle's Medium; host or cells: 22Rv-1 or VCaP cells
Description: 7. BRD4 Western Protocol for Table 8
22Rv-1 or VCaP cells were purchased from ATCC and cultured in Dulbecco's Modified Eagle's Medium (ATCC), supplemented with 10% FBS (ATCC) and Penicillin/Streptomycin (Life Technologies). DMSO control and compound treatments (0.003 μM, 0.01 μM, 0.03 μM and 0.1 μM) were performed in 12-well plates for 16 hours. Cells were harvested, and lysed in RIPA buffer (50 mM Tris pH8, 150 mM NaCl, 1% Tx-100, 0.1% SDS, 0.5% sodium deoxycholate) supplemented with protease and phosphatase inhibitors. Lysates were clarified at 16,000 g for 10 minutes, and protein concentration was determined. Equal amount of protein (20 μg) was subjected to SDS-PAGE analysis and followed by immunoblotting according to standard protocols. The antibodies used were BRD4 (Cell Signaling #13440), and Actin (Sigma #5441). Detection reagents were Clarity Western ECL substrate (Bio-rad #170-5060).

T1 sequence (P15056 whole entry V600E): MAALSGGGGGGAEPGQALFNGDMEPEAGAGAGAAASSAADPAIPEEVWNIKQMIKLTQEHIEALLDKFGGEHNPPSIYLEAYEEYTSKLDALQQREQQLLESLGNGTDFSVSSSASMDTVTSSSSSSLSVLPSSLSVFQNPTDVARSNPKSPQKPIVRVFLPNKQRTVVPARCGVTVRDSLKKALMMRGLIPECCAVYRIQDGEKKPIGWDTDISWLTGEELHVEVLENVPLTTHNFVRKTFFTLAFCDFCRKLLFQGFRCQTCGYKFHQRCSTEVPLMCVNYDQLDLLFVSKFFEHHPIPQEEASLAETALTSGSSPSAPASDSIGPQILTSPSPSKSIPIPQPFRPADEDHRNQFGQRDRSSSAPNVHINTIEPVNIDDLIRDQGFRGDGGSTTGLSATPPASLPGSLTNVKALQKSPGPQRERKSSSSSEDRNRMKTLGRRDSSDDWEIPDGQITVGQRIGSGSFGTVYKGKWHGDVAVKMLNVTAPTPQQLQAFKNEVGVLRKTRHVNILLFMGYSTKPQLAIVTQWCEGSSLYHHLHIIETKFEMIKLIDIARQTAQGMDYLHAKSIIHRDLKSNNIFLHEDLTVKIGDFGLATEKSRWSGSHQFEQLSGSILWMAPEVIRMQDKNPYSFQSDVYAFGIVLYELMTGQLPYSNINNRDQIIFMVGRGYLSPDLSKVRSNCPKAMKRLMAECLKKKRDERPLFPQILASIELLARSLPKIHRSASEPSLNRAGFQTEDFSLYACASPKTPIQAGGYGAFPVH
T1 sequence (Q96SW2 whole entry partner): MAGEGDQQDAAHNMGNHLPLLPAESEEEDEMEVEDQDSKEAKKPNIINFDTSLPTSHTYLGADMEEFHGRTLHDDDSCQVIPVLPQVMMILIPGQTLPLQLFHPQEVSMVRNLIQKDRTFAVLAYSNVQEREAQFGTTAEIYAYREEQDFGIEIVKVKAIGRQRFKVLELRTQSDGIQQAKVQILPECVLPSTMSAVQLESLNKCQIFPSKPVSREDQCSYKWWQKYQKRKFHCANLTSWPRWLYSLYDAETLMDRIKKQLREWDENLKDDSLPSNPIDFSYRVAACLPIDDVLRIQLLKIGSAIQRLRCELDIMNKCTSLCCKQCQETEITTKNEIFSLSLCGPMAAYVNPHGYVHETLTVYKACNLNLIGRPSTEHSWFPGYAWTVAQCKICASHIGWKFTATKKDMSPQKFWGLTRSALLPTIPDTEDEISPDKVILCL

Row | SMILES | DC50 [1] | Dmax [1] | DC50 [2] | Dmax [2]
1 | O=C1CCC(N2C(=O)c3cc(N4CCN(c5ccc(-n6cc(-c7ccc8c(c7)CC/C8=N\O)c(-c7ccncc7)n6)cc5)CC4)cc(-c4ccccc4)c3C2=O)C(=O)N1 (centres unmarked) [compound 39, (E)-2-(2,6-dioxopiperidin-3-yl)-6-(4-(4-(4-(1-(hydroxyimino)-2,3-dihydro-1H-inden-5-yl)-3-(pyridin-4-yl)-1H-pyrazol-1-yl)phenyl)piperazin-1-yl)-4-phenylisoindoline-1,3-dione] | 10 to 100 nM | 50 to 75% |  | 
2 | O=C1CCC(N2C(=O)c3ccc(N4CCN(c5ccc(-n6cc(-c7ccc8c(c7)CC/C8=N\O)c(-c7ccncc7)n6)cc5)CC4)c(-c4ccccc4)c3C2=O)C(=O)N1 (centres unmarked) [compound 41, (E)-2-(2,6-dioxopiperidin-3-yl)-5-(4-(4-(4-(1-(hydroxyimino)-2,3-dihydro-1H-inden-5-yl)-3-(pyridin-4-yl)-1H-pyrazol-1-yl)phenyl)piperazin-1-yl)-4-phenylisoindoline-1,3-dione] | 10 to 100 nM | ≥ 75% |  | 
3 | Cc1c(N2CCN(c3ccc(-n4cc(-c5ccc6c(c5)CC/C6=N\O)c(-c5ccncc5)n4)cc3)CC2)ccc2c1C(=O)N(C1CCC(=O)NC1=O)C2=O (centres unmarked) [compound 42, (E)-2-(2,6-dioxopiperidin-3-yl)-5-(4-(4-(4-(1-(hydroxyimino)-2,3-dihydro-1H-inden-5-yl)-3-(pyridin-4-yl)-1H-pyrazol-1-yl)phenyl)piperazin-1-yl)-4-methylisoindoline-1,3-dione] | 10 to 100 nM | 50 to 75% |  | 
4 | Cc1sc2c(c1C)C(c1ccc(Cl)cc1)=N[C@@H](CC(=O)Nc1ccc(OCCOCCOCCOCCOc3ccc4c(=O)n(C5CCC(=O)NC5=O)c(C)nc4c3)cc1)c1nnc(C)n1-2 (stereo partly drawn) [compound 45, 2-((S)-4-(4-chlorophenyl)-2,3,9-trimethyl-6H-thieno[3,2-f][1,2,4]triazolo[4,3-a][1,4]diazepin-6-yl)-N-(4-(2-(2-(2-(2-((3-(2,6-dioxopiperidin-3-yl)-2-methyl-4-oxo-3,4-dihydroquinazolin-7-yl)oxy)ethoxy)ethoxy)ethoxy)ethoxy)phenyl)acetamide] |  |  | 10 to 100 nM | ≥ 75%

Second part, the compound after the results:

Row | DC50 [1] | Dmax [1] | DC50 [2] | Dmax [2] | SMILES
5 | 10 to 100 nM | ≥ 75% |  |  | Cc1cc2c(cc1N1CCN(c3ccc(-n4cc(-c5ccc6c(c5)CC/C6=N\O)c(-c5ccncc5)n4)cc3)CC1)C(=O)N(C1CCC(=O)NC1=O)C2=O (centres unmarked) [compound 40, (E)-2-(2,6-dioxopiperidin-3-yl)-5-(4-(4-(4-(1-(hydroxyimino)-2,3-dihydro-1H-inden-5-yl)-3-(pyridin-4-yl)-1H-pyrazol-1-yl)phenyl)pipeiazin-1-yl)-6-methylisoindoline-1,3-dione]
6 |  |  | ≥ 100 nM | 50 to 75% | Cc1sc2c(c1C)C(c1ccc(Cl)cc1)=N[C@@H](CC(=O)Nc1ccc(OCCOCCOCCOCCNc3cccc4c3CN([C@H]3CCC(=O)NC3)C4=O)cc1)c1nnc(C)n1-2 [compound 43, 2-((R)-4-(4-chlorophenyl)-2,3,9-trimethyl-6H-thieno[3,2-f][1,2,4]triazolo[4,3-a][1,4]diazepin-6-yl)-N-(4-(2-(2-(2-(2-((1-oxo-2-((R)-6-oxopiperidin-3-yl)isoindolin-4-yl)amino)ethoxy)ethoxy)ethoxy)ethoxy)phenyl)acelamide]
7 |  |  | ≥ 100 nM | < 50% | Cc1sc2c(c1C)C(c1ccc(Cl)cc1)=N[C@@H](CC(=O)Nc1ccc(OCCOCCOCCOCCOc3cccc4c(=O)n(C5CCC(=O)NC5=O)c(C)nc34)cc1)c1nnc(C)n1-2 (stereo partly drawn) [compound 44, 2-((S)-4-(4-chlorophenyl)-2,3,9-trimethyl-6H-thieno[3,2-f][1,2,4]triazolo[4,3-a][1,4]diazepin-6-yl)-N-(4-(2-(2-(2-(2-((3-(2,6-dioxopiperidin-3-yl)-2-methyl-4-oxo-3,4-dihydroquinazolin-8-yl)oxy)ethoxy)ethoxy)ethoxy)ethoxy)phenyl)acetamide]
